Measured values reported in ChEMBL document CHEMBL1201862, “PubChem BioAssay data set” (2004).
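Where inhibition never reached the appropriate level, the endpoint shown equals the highest concentration tested. Otherwise, values were interpolated linearly from a five-concentration, 48-hour dose response in 96-well plates. Here, GI50 denotes the concentration required for 50% inhibition of growth.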 Active and inactive are the calls of the source. Rule as the data show it: active = GI50 up to about 1.1 µM and inactive = higher.

What was measured:
Experiment in all cases: NCI-60 cell line screen, 48 h
RXF 393 = test system: RXF 393
OVCAR-8 = test system: OVCAR-8
U-251 = test system: U-251
HOP-62 = test system: HOP-62
UACC-257 = test system: UACC-257
UO-31 = test system: UO-31
COLO 205 = test system: COLO 205
CCRF-CEM = test system: CCRF-CEM
UACC-62 = test system: UACC-62
NCI-H460 = test system: NCI-H460
SF-295 = test system: SF-295
SF-539 = test system: SF-539
NCI-H226 = test system: NCI-H226
SK-MEL-5 = test system: SK-MEL-5
IGROV-1 = test system: IGROV-1
OVCAR-4 = test system: OVCAR-4
MCF7 = test system: MCF7
PC-3 = test system: PC-3
SW-620 = test system: SW-620
CAKI-1 = test system: CAKI-1

SMILES | GI50 (RXF 393) | GI50 (OVCAR-8) | GI50 (U-251) | GI50 (HOP-62) | GI50 (UACC-257) | GI50 (UO-31) | GI50 (COLO 205) | GI50 (CCRF-CEM) | GI50 (UACC-62) | GI50 (NCI-H460) | GI50 (SF-295) | GI50 (SF-539) | GI50 (NCI-H226) | GI50 (SK-MEL-5) | GI50 (IGROV-1) | GI50 (OVCAR-4) | GI50 (MCF7) | GI50 (PC-3) | GI50 (SW-620) | GI50 (CAKI-1)
NNc1[nH]c(=S)[nH]c1C(N)=O | > 100 µM (inactive) | > 100 µM (inactive) | > 100 µM (inactive) | > 100 µM (inactive) | > 100 µM (inactive) | > 100 µM (inactive) | > 100 µM (inactive) | > 100 µM (inactive) | > 100 µM (inactive) | > 100 µM (inactive) | > 100 µM (inactive) | > 100 µM (inactive) | > 100 µM (inactive) | > 100 µM (inactive) | > 100 µM (inactive) | > 100 µM (inactive) | > 100 µM (inactive) | > 100 µM (inactive) | > 100 µM (inactive) | –
COc1ccc(Cc2nc3cc(C(F)(F)F)ccc3n2CCCN(C)C)cc1 | 14.7 µM (inactive) | 30.6 µM (inactive) | 17.1 µM (inactive) | 26 µM (inactive) | 17.1 µM (inactive) | 0.246 µM (active) | 18 µM (inactive) | 22 µM (inactive) | 17.7 µM (inactive) | 20.3 µM (inactive) | 19.7 µM (inactive) | – | 36.1 µM (inactive) | 16.2 µM (inactive) | 28 µM (inactive) | 27.2 µM (inactive) | 17.9 µM (inactive) | 22.9 µM (inactive) | 20.2 µM (inactive) | 18.2 µM (inactive)
Cc1cc(Nc2ccc(S(=O)(=O)O)c3cc(S(=O)(=O)O)cc(S(=O)(=O)O)c23)c2ccccc2n1 | > 100 µM (inactive) | > 100 µM (inactive) | > 100 µM (inactive) | > 100 µM (inactive) | > 100 µM (inactive) | > 100 µM (inactive) | > 100 µM (inactive) | – | > 100 µM (inactive) | > 100 µM (inactive) | > 100 µM (inactive) | > 100 µM (inactive) | > 100 µM (inactive) | > 100 µM (inactive) | > 100 µM (inactive) | > 100 µM (inactive) | > 100 µM (inactive) | > 100 µM (inactive) | > 100 µM (inactive) | > 100 µM (inactive)
O=C(N/N=C\c1ccc([N+](=O)[O-])cc1)Nc1ccccc1 | > 100 µM (inactive) | > 100 µM (inactive) | > 100 µM (inactive) | > 100 µM (inactive) | > 100 µM (inactive) | > 100 µM (inactive) | > 100 µM (inactive) | > 100 µM (inactive) | > 100 µM (inactive) | > 100 µM (inactive) | > 100 µM (inactive) | – | > 100 µM (inactive) | > 100 µM (inactive) | > 100 µM (inactive) | > 100 µM (inactive) | > 100 µM (inactive) | > 100 µM (inactive) | > 100 µM (inactive) | > 100 µM (inactive)
C/C(=N/NC(=S)Nc1ccccc1C)c1ccccn1 | 0.682 µM (active) | 0.107 µM (active) | 0.0571 µM (active) | 0.0299 µM (active) | < 0.0208 µM (active) | 0.43 µM (active) | < 0.0196 µM (active) | 0.0206 µM (active) | 0.232 µM (active) | 0.0818 µM (active) | 0.175 µM (active) | 1.01 µM (active) | 0.075 µM (active) | 0.0766 µM (active) | < 0.0182 µM (active) | 0.279 µM (active) | 0.0164 µM (active) | < 0.0153 µM (active) | < 0.0177 µM (active) | –
CN1CCC(CNC(=O)CCCCCCCCC(=O)NCC2(c3ccccc3)CCN(C)CC2)(c2ccccc2)CC1 | > 100 µM (inactive) | > 100 µM (inactive) | > 100 µM (inactive) | > 100 µM (inactive) | 38.8 µM (inactive) | > 100 µM (inactive) | 69.7 µM (inactive) | 84.7 µM (inactive) | > 100 µM (inactive) | > 100 µM (inactive) | > 100 µM (inactive) | 15 µM (inactive) | > 100 µM (inactive) | > 100 µM (inactive) | > 100 µM (inactive) | > 100 µM (inactive) | > 100 µM (inactive) | > 100 µM (inactive) | > 100 µM (inactive) | –
